Assay results taken from patent US10081615B2, “Sulfamate derivative compounds for use in treating or alleviating pain” (Bio-Pharm Solutions Co., Ltd., priority 2013, dated 2018).

Columns and labels:
[1] = system: acetic acid-induced writhes; experiment: Writhing test (acetic acid); type: in vivo, ICR mice; settings: Mus musculus, po, 0.5 h, read-out: Writh test: ED50 mg/kg
Procedure: To examine the pain relief effect of the sulfamate derivative compounds, a writhing test was referring to Fischer, L. G. et al. (2008).
ICR mice (male, 24-28 g; Orient Bio, Korea) were habituated before test in test room for 1 hour. Animals were fasted for 2 hr before administration of compounds. […] All compounds were dissolved in a vehicle of 30% (v/v) PEG 400 or 20% (v/v) Tween 80. The control group was treated with the vehicle without compounds.
[…] Animals were habituated in the cage for 5 min. 5 min after habituation, the number of writhes (abdominal constriction) was counted for 15 minutes referring to Korzeniewska-Rybicka, I. et al. (1998) and compared with that of the control.

[2] = system: Vincristine-induced pain model; experiment: Antiallodynic activity in the vincristine-induced pain model (von Frey); type: in vivo, Sprague-Dawley rats; settings: rat, intraperitoneal
Procedure: Male, Sprague-Dawley rats (300-320 g, Nara Bio, Korea) were habituated for 1 week before surgery and allowed free access to food and water throughout the experimentation. Room temperature and humidity were maintained at 24±2° C. and 50±10%, respectively.
The vincristine-induced pain model was established by the procedure of Natsuko et al. (2001) with minor modifications. Vincristine was intravenously infused continuously for 14 days using a mini-osmotic pump as follows: Vincristine sulfate solution (Hospira, Australia) was diluted with 0.9% saline to a final dose of 30 ug/kg. The pumps (Alzet Model 2002, USA) were filled with the vincristine solution and primed by incubation at 37° C. for 4 h before the infusion. Briefly, animals were put under gaseous anesthesia with isoflurane and NO with a 4:4 flow ratio. A catheter made from PE-60 tubing was inserted into an external jugular vein in the rat. Sham controls were prepared in the same manner, with the external jugular vein exposed, but not cut down. Preparation of the vehicle controls were identical to the group treated with compound, except for administration of vehicles without compound in the vehicle control group.
Tactile sensitivity (mechanical allodynia) was evaluated using von Frey monofilaments before and after treatment, and the animals were included in the study only if the withdrawal threshold value was less than 4 g. One week after surgery, vincristine-infused animals (n=6), sham-operated animals (n=12) and vehicle-operated (n=18) animals were tested for tactile sensitivity with von Frey monofilaments with 3 trials in each animal. All animals were placed in a stainless steel mesh chamber and habituated for 30 min in the test cage. The tactile sensitivity for the ipsilateral hind paw was measured using the up-and-down method (Dixon, 1980) with seven von Frey monofilaments (0.4, 1, 2, 4, 6, 8, and 15 g) in 3 trials. The tactile sensitivity test was followed by Dixon's method. The 50% paw withdrawal threshold for each paw was calculated using the following formula: [Xth] log=[vFr] log+ky where [vFr] is the force of the last von Frey used, k=0.2249 which is the average interval (in log units) between the von Frey monofilaments, and y is a value that depends upon the pattern of withdrawal responses (Dixon, 1980).
[…] The test was performed at the peak time of efficacy (0.5 hr) after compound administration.
The relative values compared to the sham (% control) were calculated and are shown in Table 11, which show an antiallodynic effect of the compound of examples in the vincristine-induced pain model in rats.

[3] = system: Post operation-induced pain model; experiment: Antiallodynic activity on post operative pain-induced pain model (von Frey); type: in vivo, Sprague-Dawley rats; settings: Rattus norvegicus, ip, 0.5 h, read-out: Post Operation: ED50 mg/kg
Procedure: Male Sprague-Dawley rats (Orient Bio, Korea), 300-320 g, total of 201 rats were used (details in Table 7). Rats were habituated at least 3 days before surgery and free access to food and water (room temperature and humidity were maintained at […] and 50±10%, respectively). The process of performing the post-operation model's surgery was adapted from Brennan et al (1996). At first, rats with allodynia (threshold valueless than 8 g) were excluded in Pre-von Frey Test. During the post-operation surgery, rats were anesthetized under gaseous anesthesia with 2% isoflurane. Rats were laid face down on a plate fixed at 37° C. to prevent against hypothermia. The ipsilateral plantar aspect (left side) of the hind paw was prepared in a sterile manner with a 10% povidone-iodine solution. A longitudinal incision (1 cm) (FIG. 2-A) was made with a blade (number 11) through the skin and fascia of the ipsilateral plantar aspect of the foot, starting from 0.5 cm below the proximal edge of the heel and extending toward the toes. Rats' plantar muscles were elevated and incised longitudinally (FIG. 2-B). After hemostasis with gentle pressure, the skin was opposed with 2 mattress sutures (4-0 Dafilon) (FIG. 2-C). The wound site was covered with a 10% povidone-iodine solution gauze and injected with antibiotics (gentamicin, 8 mg/kg, ip). The sutures were removed under halothane anesthesia approximately 30 hours later, at the end of post-operative day 1.
After 2-3 days of recovery, rats with a good response (threshold less than 4 g) in Pre-von Frey Test were selected. According to this response, we made three groups with each group having equal average responses: Group 1, post-operation and drug treated; Group 2, post-operation and vehicle treated; Group 3, no post-operation and vehicle treated. In this study, Group 3 was the sham control (positive) group. The group 2 was used to check for possible failures to generate post-operative pain.
For efficacy measure, the threshold value of group C was assigned 100% efficacy, and the percentage of the threshold values of group A compared to group C (for each different dose level) were calculated as the efficacies. Base on these efficacy values, ED50 was calculated using log fitting. If there was no clear ED50, then we marked the percent efficacy at the highest tested dose or larger than highest tested dose.
For pain threshold test, all animals were placed in a stainless steel meshed chamber and habituated for 30 min in the test box. The tactile sensitivity of the ipsilateral hind paw was measured using the up-and-down method (Dixon, 1980) with seven von Frey monofilaments (0.4, 1, 2, 4, 6, 8, and 15 g) using 3 trials. The 50% paw withdrawal threshold for each paw was calculated using the following formula: [Xth] log=[vFr] log+ky, where [vFr] is the force of the last von Frey filament used, k=0.2249 which is the average interval (in log units) between the von Frey monofilaments, y which is a value that depends upon the pattern of withdrawal responses, and Xth which is the threshold value (Dixon, 1980).
Drugs were dissolved 30% PEG400 for example 60, 0.9% saline for Pregabalin, 20% Tween80 for Tylenol, 0.9% saline for Topiramate. These vehicles were selected depending on the compound's solubility. Intraperitoneal injection (5 μl/g) was done for all drugs.
The relative values compared to the sham (% control) were calculated and shown in Table 8, which show an antiallodynic effect of the compound of examples on Post operation-induced pain model in rats.

[4] = system: CFA-induced pain model; experiment: Antiallodynic activity on Complete Freund's Adjuvant (CFA)-induced inflammatory pain model (von Frey); type: in vivo, Sprague-Dawley rats; settings: Rattus norvegicus, ip
Procedure: Male, Sprague-Dawley rats (200-220 g, Nara Bio, Korea) were habituated for 1 week before surgery and allowed free access to food and water throughout the experimentation. Room temperature and humidity were maintained at 24±2° C. and 50±10%, respectively.
CFA-induced inflammatory pain was induced by the procedure of Nagakura et al. (2003) and Gregory P. et al. (2010) with minor modifications. CFA (sigma, USA) was injected into the left plantar with a 100 ul volume under gaseous anesthesia with isoflurane and NO2 with a 4:4 flow ratio. Sham controls were injected with 100 ul of saline and preparation of the vehicle controls were identical to the group treated with compound, except for administration of vehicles without compound in the vehicle control group.
Tactile sensitivity (mechanical allodynia) was evaluated using von Frey monofilaments before and after treatment, and the animals were included in the study only if the withdrawal threshold value was less than 4 g. One week after surgery, CFA-infused animals (n=4˜6), sham-operated animals (n=12), and vehicle-operated animals (n=17) were tested for tactile sensitivity with von Frey monofilaments, with 3 trials for each animal. All animals were placed in a stainless steel mesh chamber and habituated for 30 min in the test cage. The tactile sensitivity for the ipsilateral hind paw was measured using the up-and-down method (Dixon, 1980) with seven von Frey monofilaments (0.4, 1, 2, 4, 6, 8, and 15 g) in 3 trials. The tactile sensitivity test was followed by Dixon's method (Dixon, 1980). The 50% paw withdrawal threshold for each paw was calculated using the following formula: [Xth] log=[vFr] log+ky where [vFr] is the force of the last von Frey used, k=0.2249 which is the average interval (in log units) between the von Frey monofilaments, and y is a value that depends upon the pattern of the withdrawal responses (Dixon, 1980).
The antiallodynic effect of the compound of Example was evaluated at the doses of 10, 30 and 60 mg/kg (n=4˜6), and were intraperitoneally administered in a volume of 5 ul/g by bodyweight in a vehicle of 30% (v/v) PEG. […]
The relative values compared to the sham (% control) were calculated and are shown in Table 4, which show an antiallodynic effect of the compound of examples in the CFA-induced pain model in rats.

[5] = system: SNL model; experiment: Antiallodynic activity in the Chung model (SNL, Spinal Nerve Ligation; von Frey); type: in vivo, Sprague-Dawley rats; settings: Rattus norvegicus, po, 0.5 h, read-out: SNL model: effect (%) compared to control, rat, oral, 3.5 mg/kg administered, 0.5 h
Procedure: Male Sprague-Dawley rats (200-220 g, Orient Bio, Korea) were habituated for 1 week before the experiment and allowed free access to food and water throughout the experimentation. Room temperature and humidity were maintained at 24±2° C. and 50±10%, respectively. The neuropathic surgery (SNL, Spinal Nerve Ligation) model was done as described in Kim and Chung (1992). Briefly, an animal was put under gaseous anesthesia with isoflurane and NO2 with a 4:4 flow ratio. The left lumbar spinal nerves L5 and L6 were isolated and tightly ligated with 4-0 silk thread. The wound was treated with a gentamicin antibiotic solution (4 mg/kg, 4 ul/g by bodyweight), and the wound muscle was closed with Catgut® chrome 4/0 thread and the skin was closed with Dafilon 4/0 thread. Sham controls were prepared in the same manner with the spinal nerves were exposed, but no ligated L5 and L6 nerves. Preparation of the vehicle controls were identical to the group treated with compound, except for administration of vehicles without compound in the vehicle control group.
Tactile sensitivity (mechanical allodynia) was evaluated using von Frey monofilaments before and after treatment and animals the animals were included in the study only if the withdrawal threshold value was less than 4 g. One week after surgery, SNL-operated animals (n=4˜6), sham-operated animals (n=4˜10) and vehicle-operated animals (n=4˜13) were tested for tactile sensitivity with von Frey monofilaments with 3 trials in each animal. All animals were placed in a stainless steel mesh chamber and habituated for 30 min in the test cage. The tactile sensitivity for ipsilateral hind paw was measured using the up-and-down method (Dixon, 1980) with seven von Frey monofilaments (0.4, 1, 2, 4, 6, 8, and 15 g) in 3 trials. The tactile sensitivity test was followed by Dixon's method (Dixon, 1980). The 50% paw withdrawal threshold for each paw was calculated using the following formula: [Xth] log=[vFr] log+ky where [vFr] is the force of the last von Frey used, k=0.2249 which is the average interval (in log units) between the von Frey monofilaments, and y is a value that depends upon the pattern of withdrawal responses (Dixon, 1980).
All animals were fasted for 18 h before the administration of the compounds. The antiallodynic effect of the compounds were evaluated at the various doses (n=5˜6), orally administered in a volume of 5 ul/g by bodyweight in a vehicle of 30% (v/v) PEG 400 (Example 7) or 20% (v/v) Tween 80 (Examples 5 and 6) or saline. […]
The relative values compared to the sham group (% control) were calculated and are shown in Table 5, which show an antiallodynic effect of the test compounds in the SNL model in rats.

Compound	ED50 [1]	ED50 ([2]; ip, 0.5 h)	ED50 [3]	ED50 ([4]; 0.5 h, read-out: CFA model: ED50 mg/kg)	Vincristine model: effect (%) compared to control ([2]; 2.4 mg/kg administered, time not given)	response vs control in vivo at 25 mg/kg ([4]; read-out: CFA model: effect (%) compared to control)	response vs control in vivo at 3.5 mg/kg [5]
CC1(C)Oc2ccccc2[C@@H](COS([NH-])(=O)=O)O1.[Na+] [Example 59, Sodium (S)-(((2,2-dimethyl-4H-benzo[d][1,3]dioxin-4-yl)methoxy)sulfonyl)amide Trihydrate]	81.4 mg/kg	2.6 mg/kg	10.9 mg/kg	20.2 mg/kg	–	–	–
CC1(C)Oc2ccccc2[C@@H](COS([NH-])(=O)=O)O1.[K+] [Example 71, Potassium (S)-(((2,2-dimethyl-4H-benzo[d][1,3]dioxin-4-yl)methoxy)sulfonyl)amide]	–	–	–	–	(96.2%)	24.7%	15.9%
